Measured values reported in PubChem BioAssay AID248 (DTP/NCI, 2004).
Toxic doses and inconclusive results are not listed. Cut-off read from the data, not from the text of the source: active = T/C of 150% or more; inactive = T/C below 125%.

Test system: L1210 leukemia ip in BDF1 mice, survival T/C
Assay: NCI In Vivo Anticancer Drug Screen. Data for tumor model L1210 Leukemia (intraperitoneal) in B6D2F1 (BDF1) mice
Conditions: endpoint: mean survival time, higher = longer survival
Method in brief: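 In this screen, tumor-bearing mice given compound are compared to those given vehicle, and their survival values are reported as a treated-to-control quotient.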

[1] = dose: 100.0 mg/kg/injection, schedule: Q01DX009 (ip), vehicle: Klucel (hydroxypropylcellulose) (HPC)
[2] = dose: 100.0 mg/kg/injection, schedule: Q04DX003 (ip), vehicle: Klucel (hydroxypropylcellulose) (HPC)
[3] = dose: 200.0 mg/kg/injection, schedule: Q01DX009 (ip), vehicle: Klucel (hydroxypropylcellulose) (HPC)
[4] = dose: 200.0 mg/kg/injection, schedule: Q04DX003 (ip), vehicle: Klucel (hydroxypropylcellulose) (HPC)
[5] = dose: 400.0 mg/kg/injection, schedule: Q04DX003 (ip), vehicle: Klucel (hydroxypropylcellulose) (HPC)
[6] = dose: 100.0 mg/kg/injection, schedule: Q04DX002 (ip), vehicle: Klucel (hydroxypropylcellulose) (HPC)
[7] = dose: 200.0 mg/kg/injection, schedule: Q04DX002 (ip), vehicle: Klucel (hydroxypropylcellulose) (HPC)
[8] = dose: 100.0 mg/kg/injection, schedule: Q04DX003 (ip), vehicle: saline with Tween-80
[9] = dose: 200.0 mg/kg/injection, schedule: Q04DX003 (ip), vehicle: saline with Tween-80
[10] = dose: 400.0 mg/kg/injection, schedule: Q04DX003 (ip), vehicle: saline with Tween-80
[11] = dose: 100.0 mg/kg/injection, schedule: Q01DX001 (ip), vehicle: carboxymethylcellulose (CMC)
[12] = dose: 200.0 mg/kg/injection, schedule: Q01DX001 (ip), vehicle: carboxymethylcellulose (CMC)
[13] = dose: 400.0 mg/kg/injection, schedule: Q01DX001 (ip), vehicle: carboxymethylcellulose (CMC)
[14] = dose: 100.0 mg/kg/injection, schedule: Q01DX001 (ip), vehicle: saline
[15] = dose: 200.0 mg/kg/injection, schedule: Q01DX001 (ip), vehicle: saline
[16] = dose: 400.0 mg/kg/injection, schedule: Q01DX001 (ip), vehicle: saline

Measured: T/C

O=C(Nc1ccc(Cl)c(C(F)(F)F)c1)OCc1ccco1
inactive: dose: 100.0 mg/kg/injection, schedule: Q01DX009 (ip), vehicle: gum acacia 93 % of control | dose: 200.0 mg/kg/injection, schedule: Q01DX009 (ip), vehicle: gum acacia 100 % of control | dose: 400.0 mg/kg/injection, schedule: Q01DX009 (ip), vehicle: gum acacia 92 % of control

CCOP(=O)(OCC)C(C)C#N (stereo not drawn)
inactive: dose: 15.0 mg/kg/injection, schedule: Q01DX001 (ip), vehicle: saline 95 % of control | dose: 30.0 mg/kg/injection, schedule: Q01DX001 (ip), vehicle: saline 100 % of control

OC1COC(c2ccco2)OC1 (stereo not drawn) (tested in a mixture with another compound)
inactive: [1] 94 % of control | [2] 102 % of control | [3] 105 % of control | [4] 101 % of control | [5] 102 % of control

CC(C)(C)C(C)(O)CN (stereo not drawn)
inactive: dose: 100.0 mg/kg/injection, schedule: Q01DX009 (ip), vehicle: saline 95 % of control | dose: 200.0 mg/kg/injection, schedule: Q01DX009 (ip), vehicle: saline 95 % of control | dose: 400.0 mg/kg/injection, schedule: Q01DX009 (ip), vehicle: saline 95 % of control

CC1(C)OCC(C2OC(C)(C)OC2C2COC(C)(C)O2)O1 (stereo not drawn)
inactive: dose: 87.5 mg/kg/injection, schedule: Q04DX002 (ip), vehicle: saline 100 % of control | dose: 175.0 mg/kg/injection, schedule: Q04DX002 (ip), vehicle: saline 97 % of control | dose: 350.0 mg/kg/injection, schedule: Q04DX002 (ip), vehicle: saline 93 % of control

C1=CC2C1C1(Cc3ccccc3)N=NC2(Cc2ccccc2)C2C=CC21 (stereo not drawn)
inactive: [6] 97 % of control | [7] 94 % of control | dose: 400.0 mg/kg/injection, schedule: Q04DX002 (ip), vehicle: Klucel (hydroxypropylcellulose) (HPC) 87 % of control

CC(=O)NC1CCC(Br)CC1 (stereo not drawn)
inactive: dose: 50.0 mg/kg/injection, schedule: Q01DX009 (ip), vehicle: Klucel (hydroxypropylcellulose) (HPC) 94 % of control | [1] 105 % of control | [3] 102 % of control

O=C(CC(O)(C(F)(F)F)C(F)(F)F)c1ccc(F)cc1
inactive: [8] 94 % of control | [9] 92 % of control | [10] 103 % of control

Cc1ccc(N(O)C(=O)Nc2ccccc2)cc1
inactive: dose: 50.0 mg/kg/injection, schedule: Q01DX015 (ip), vehicle: methylcellulose (MC) 102 % of control | dose: 100.0 mg/kg/injection, schedule: Q01DX015 (ip), vehicle: methylcellulose (MC) 91 % of control | dose: 200.0 mg/kg/injection, schedule: Q01DX015 (ip), vehicle: methylcellulose (MC) 96 % of control

Cc1ccc(S(=O)(=O)N/N=C/C(C)(C)C(C)C)cc1
inactive: [8] 108 % of control | [9] 97 % of control | [10] 98 % of control

Cc1cc(C)c(C(=O)/C=C/c2ccccc2)c(C)c1
inactive: [1] 91 % of control | [2] 104 % of control | [3] 94 % of control | [4] 101 % of control | dose: 400.0 mg/kg/injection, schedule: Q01DX009 (ip), vehicle: Klucel (hydroxypropylcellulose) (HPC) 94 % of control | [5] 95 % of control

N/C(=N\OC(=O)c1ccccc1)c1ccccc1
inactive: dose: 50.0 mg/kg/injection, schedule: Q04DX002 (ip), vehicle: Klucel (hydroxypropylcellulose) (HPC) 96 % of control | [6] 104 % of control | [7] 93 % of control

CCCCCCCCCCNc1ccc(Cl)nn1
inactive: [8] 93 % of control | [9] 93 % of control | [10] 90 % of control

CCCCCCc1cc(N=Nc2ccc(S(=O)(=O)Nc3nccc(C)n3)cc2)c(O)cc1O
inactive: [11] 95 % of control | [12] 98 % of control | [13] 93 % of control

CC1CC(NC(=O)CC#N)CC(C)(C)C1 (stereo not drawn)
inactive: dose: 50.0 mg/kg/injection, schedule: Q01DX009 (ip), vehicle: saline with Tween-80 93 % of control | dose: 100.0 mg/kg/injection, schedule: Q01DX009 (ip), vehicle: saline with Tween-80 90 % of control | dose: 100.0 mg/kg/injection, schedule: Q04DX002 (ip), vehicle: saline with Tween-80 94 % of control | dose: 200.0 mg/kg/injection, schedule: Q01DX009 (ip), vehicle: saline with Tween-80 97 % of control | dose: 200.0 mg/kg/injection, schedule: Q04DX002 (ip), vehicle: saline with Tween-80 102 % of control

Cc1ccc(C2CCCN(C)O2)cc1 (stereo not drawn)
inactive: [14] 102 % of control | [15] 101 % of control | [16] 93 % of control

O=C1c2ccccc2C2(c3ccccc31)C(C(=O)c1ccccc1)C2C(=O)c1ccccc1 (stereo not drawn)
inactive: dose: 75.0 mg/kg/injection, schedule: Q01DX001 (ip), vehicle: carboxymethylcellulose (CMC) 94 % of control | dose: 150.0 mg/kg/injection, schedule: Q01DX001 (ip), vehicle: carboxymethylcellulose (CMC) 96 % of control | dose: 300.0 mg/kg/injection, schedule: Q01DX001 (ip), vehicle: carboxymethylcellulose (CMC) 91 % of control

Cc1ccc2c(ccc3ccccc32)n1
inactive: [2] 97 % of control | [4] 90 % of control | [5] 90 % of control

CC(=O)OCCC(OC(C)=O)c1ccccn1 (stereo not drawn)
inactive: dose: 50.0 mg/kg/injection, schedule: Q01DX001 (ip), vehicle: saline 100 % of control | [14] 103 % of control | [15] 97 % of control | [16] 103 % of control

C=CC[P+](CCCC)(CCCC)CCCC
inactive: dose: 6.25 mg/kg/injection, schedule: Q04DX003 (ip), vehicle: saline 102 % of control | dose: 12.5 mg/kg/injection, schedule: Q04DX003 (ip), vehicle: saline 91 % of control

C/C(=N/OC(=O)N(C)C)c1ccccc1
inactive: [11] 104 % of control | [12] 101 % of control | [13] 90 % of control

O=C(O)/C=C/[P+](c1ccccc1)(c1ccccc1)c1ccccc1
inactive: dose: 5.0 mg/kg/injection, schedule: Q01DX001 (ip), vehicle: saline 101 % of control | dose: 10.0 mg/kg/injection, schedule: Q01DX001 (ip), vehicle: saline 106 % of control | dose: 20.0 mg/kg/injection, schedule: Q01DX001 (ip), vehicle: saline 101 % of control

O=C1c2ccccc2-c2ccc(Cl)cc21
inactive: [11] 96 % of control | [12] 96 % of control | [13] 96 % of control

O=C(Nc1cccc2ccccc12)OCCF
inactive: dose: 5.0 mg/kg/injection, schedule: Q01DX001 (ip), vehicle: carboxymethylcellulose (CMC) 101 % of control | dose: 10.0 mg/kg/injection, schedule: Q01DX001 (ip), vehicle: carboxymethylcellulose (CMC) 106 % of control | dose: 20.0 mg/kg/injection, schedule: Q01DX001 (ip), vehicle: carboxymethylcellulose (CMC) 104 % of control | dose: 40.0 mg/kg/injection, schedule: Q01DX001 (ip), vehicle: carboxymethylcellulose (CMC) 104 % of control | dose: 80.0 mg/kg/injection, schedule: Q01DX001 (ip), vehicle: carboxymethylcellulose (CMC) 106 % of control

O=C1CCSC(=S)N1c1ccc(Cl)c(Cl)c1
inactive: dose: 25.0 mg/kg/injection, schedule: Q04DX003 (ip), vehicle: saline with Tween-80 101 % of control | dose: 50.0 mg/kg/injection, schedule: Q04DX003 (ip), vehicle: saline with Tween-80 101 % of control | [8] 104 % of control
